Toxic doses and inconclusive results are not listed. Cut-off read from the data, not from the text of the source: active = T/C of 150% or more; inactive = T/C below 125%.
Tested on: L1210 leukemia ip in BDF1 mice, survival T/C
Assay: NCI In Vivo Anticancer Drug Screen. Data for tumor model L1210 Leukemia (intraperitoneal) in B6D2F1 (BDF1) mice
Settings: endpoint: mean survival time, higher = longer survival
How it was run: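 Read-out is survival time, reported as the treated-group measurement over the vehicle-control measurement.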

[1] = dose: 100.0 mg/kg/injection, schedule: Q01DX009 (ip), vehicle: saline with Tween-80
[2] = dose: 100.0 mg/kg/injection, schedule: Q04DX003 (ip), vehicle: saline with Tween-80
[3] = dose: 200.0 mg/kg/injection, schedule: Q04DX003 (ip), vehicle: saline with Tween-80
[4] = dose: 400.0 mg/kg/injection, schedule: Q01DX009 (ip), vehicle: saline with Tween-80
[5] = dose: 400.0 mg/kg/injection, schedule: Q04DX003 (ip), vehicle: saline with Tween-80
[6] = dose: 200.0 mg/kg/injection, schedule: Q01DX009 (ip), vehicle: saline with Tween-80
[7] = dose: 100.0 mg/kg/injection, schedule: Q01DX001 (ip), vehicle: carboxymethylcellulose (CMC)
[8] = dose: 200.0 mg/kg/injection, schedule: Q01DX001 (ip), vehicle: carboxymethylcellulose (CMC)
[9] = dose: 400.0 mg/kg/injection, schedule: Q01DX001 (ip), vehicle: carboxymethylcellulose (CMC)
[10] = dose: 12.5 mg/kg/injection, schedule: Q04DX003 (ip), vehicle: saline
[11] = dose: 25.0 mg/kg/injection, schedule: Q04DX003 (ip), vehicle: saline
[12] = dose: 50.0 mg/kg/injection, schedule: Q04DX003 (ip), vehicle: saline
[13] = dose: 100.0 mg/kg/injection, schedule: Q01DX001 (ip), vehicle: other
[14] = dose: 200.0 mg/kg/injection, schedule: Q01DX001 (ip), vehicle: other
[15] = dose: 400.0 mg/kg/injection, schedule: Q01DX001 (ip), vehicle: other
[16] = dose: 100.0 mg/kg/injection, schedule: Q01DX009 (ip), vehicle: Klucel (hydroxypropylcellulose) (HPC)
[17] = dose: 200.0 mg/kg/injection, schedule: Q01DX009 (ip), vehicle: Klucel (hydroxypropylcellulose) (HPC)
[18] = dose: 400.0 mg/kg/injection, schedule: Q01DX009 (ip), vehicle: Klucel (hydroxypropylcellulose) (HPC)
[19] = dose: 25.0 mg/kg/injection, schedule: Q01DX009 (ip), vehicle: saline
[20] = dose: 50.0 mg/kg/injection, schedule: Q01DX001 (ip), vehicle: saline
[21] = dose: 50.0 mg/kg/injection, schedule: Q01DX009 (ip), vehicle: saline
[22] = dose: 100.0 mg/kg/injection, schedule: Q01DX001 (ip), vehicle: saline
[23] = dose: 100.0 mg/kg/injection, schedule: Q04DX003 (ip), vehicle: saline
[24] = dose: 50.0 mg/kg/injection, schedule: Q01DX001 (ip), vehicle: carboxymethylcellulose (CMC)
[25] = dose: 200.0 mg/kg/injection, schedule: Q04DX003 (ip), vehicle: saline
[26] = dose: 400.0 mg/kg/injection, schedule: Q04DX003 (ip), vehicle: saline
[27] = dose: 100.0 mg/kg/injection, schedule: Q01DX009 (ip), vehicle: saline

Measured: T/C

CC(C)=CCC(CCN1CCCCC1)(C(N)=O)c1cccc2ccccc12 (centres undefined)
inactive: dose: 1.5 mg/kg/injection, schedule: Q01DX009 (ip), vehicle: Klucel (hydroxypropylcellulose) (HPC) 104 % of control | dose: 3.12 mg/kg/injection, schedule: Q01DX009 (ip), vehicle: Klucel (hydroxypropylcellulose) (HPC) 104 % of control | dose: 6.25 mg/kg/injection, schedule: Q01DX009 (ip), vehicle: Klucel (hydroxypropylcellulose) (HPC) 95 % of control | dose: 6.25 mg/kg/injection, schedule: Q04DX002 (ip), vehicle: Klucel (hydroxypropylcellulose) (HPC) 97 % of control | dose: 12.5 mg/kg/injection, schedule: Q04DX002 (ip), vehicle: Klucel (hydroxypropylcellulose) (HPC) 97 % of control | dose: 25.0 mg/kg/injection, schedule: Q04DX002 (ip), vehicle: Klucel (hydroxypropylcellulose) (HPC) 103 % of control

C(=N\Nc1nn[nH]n1)/c1ccncc1
inactive: [1] 98 % of control | [2] 95 % of control | dose: 132.0 mg/kg/injection, schedule: Q01DX009 (ip), vehicle: saline with Tween-80 102 % of control | [3] 96 % of control | dose: 300.0 mg/kg/injection, schedule: Q01DX009 (ip), vehicle: saline with Tween-80 97 % of control | [4] 100 % of control | [5] 90 % of control

CC(C)CC(NC(=O)c1ccccc1)C(=O)O (centres undefined)
inactive: [6] 88 % of control | dose: 264.0 mg/kg/injection, schedule: Q01DX009 (ip), vehicle: saline with Tween-80 97 % of control | dose: 600.0 mg/kg/injection, schedule: Q01DX009 (ip), vehicle: saline with Tween-80 92 % of control

N=c1nc(N)c(N)c(N)n1O
inactive: [7] 94 % of control | [8] 97 % of control | [9] 97 % of control

CCC(C)C(CCN1CCCCC1)(CNC(=O)CN(CC)CC)Cc1cccc2ccccc12 (centres undefined)
inactive: [10] 101 % of control | [11] 103 % of control | [12] 98 % of control

CCC[CH2][Sn]([CH2]C)([CH2]C)[CH2]C
inactive: dose: 100.0 mg/kg/injection, schedule: Q04DX002 (ip), vehicle: saline 96 % of control | dose: 200.0 mg/kg/injection, schedule: Q04DX002 (ip), vehicle: saline 101 % of control

O=c1c(O)c(-c2ccc(O)cc2O)oc2cc(O)cc(O)c12
inactive: [1] 103 % of control | [6] 98 % of control | [4] 90 % of control

Cc1ccc(N(CCCl)CCCl)cc1NC(=O)c1ccccc1
inactive: [13] 102 % of control | [14] 102 % of control | [15] 109 % of control

NC1=NC(Cc2ccccc2)N(c2ccc(Cl)cc2)C(N)=N1 (centres undefined)
inactive: dose: 14.0 mg/kg/injection, schedule: Q01DX009 (ip), vehicle: steriod suspending solution 98 % of control | dose: 24.0 mg/kg/injection, schedule: Q01DX009 (ip), vehicle: steriod suspending solution 98 % of control | dose: 39.0 mg/kg/injection, schedule: Q01DX009 (ip), vehicle: steriod suspending solution 98 % of control | dose: 65.0 mg/kg/injection, schedule: Q01DX009 (ip), vehicle: steriod suspending solution 96 % of control

CC(=O)OC(OC(C)=O)c1ccccc1
inactive: dose: 100.0 mg/kg/injection, schedule: Q04DX002 (ip), vehicle: Klucel (hydroxypropylcellulose) (HPC) 106 % of control | dose: 200.0 mg/kg/injection, schedule: Q04DX002 (ip), vehicle: Klucel (hydroxypropylcellulose) (HPC) 110 % of control | dose: 400.0 mg/kg/injection, schedule: Q04DX002 (ip), vehicle: Klucel (hydroxypropylcellulose) (HPC) 103 % of control

Cc1cccc(C)c1NC(=O)C(Cl)c1ccccc1 (centres undefined)
inactive: [16] 107 % of control | dose: 100.0 mg/kg/injection, schedule: Q04DX003 (ip), vehicle: Klucel (hydroxypropylcellulose) (HPC) 98 % of control | [17] 91 % of control | dose: 200.0 mg/kg/injection, schedule: Q04DX003 (ip), vehicle: Klucel (hydroxypropylcellulose) (HPC) 98 % of control | [18] 98 % of control | dose: 400.0 mg/kg/injection, schedule: Q04DX003 (ip), vehicle: Klucel (hydroxypropylcellulose) (HPC) 98 % of control

CCCCCCCNC(C)=O
inactive: dose: 25.0 mg/kg/injection, schedule: Q01DX001 (ip), vehicle: saline 99 % of control | [19] 106 % of control | [20] 116 % of control | [21] 95 % of control | dose: 100.0 mg/kg/injection, schedule: Q01DX001 (ip), vehicle: saline with Tween-80 92 % of control | [22] 99 % of control

CCCCNCC1COc2cccc(OCC)c2O1 (centres undefined)
inactive: dose: 6.25 mg/kg/injection, schedule: Q01DX009 (ip), vehicle: saline 107 % of control | dose: 12.5 mg/kg/injection, schedule: Q01DX009 (ip), vehicle: saline 105 % of control | [10] 106 % of control | [19] 108 % of control | [11] 95 % of control | [21] 113 % of control | [12] 108 % of control | [22] 103 % of control | [23] 95 % of control

CCCCCCCC1CCCCC1
inactive: [20] 101 % of control | [22] 98 % of control | dose: 200.0 mg/kg/injection, schedule: Q01DX001 (ip), vehicle: saline 101 % of control | dose: 400.0 mg/kg/injection, schedule: Q01DX001 (ip), vehicle: saline 98 % of control

CCc1ccc(NC2=C(OC)C(=O)C(Nc3ccc(CC)cc3)=C(OC)C2=O)cc1
inactive: [24] 98 % of control | [7] 93 % of control | [8] 98 % of control | [9] 90 % of control

c1ccc(Cc2ccncc2)cc1
inactive: [1] 101 % of control | [6] 106 % of control

O=C(O)/C=C/c1cccc(Br)c1
inactive: [24] 101 % of control | [7] 97 % of control | [8] 97 % of control | [9] 101 % of control

NC(=O)C(O)c1ccccc1 (centres undefined)
inactive: [23] 96 % of control | [25] 94 % of control | [26] 100 % of control

COC(=O)C1CC[N-]CC1.COC(=O)C1CC[N-]CC1.[Cl][Pt+2][Cl]
inactive: [2] 106 % of control | [3] 106 % of control | [5] 106 % of control

CCCCCCCCCCC(=O)CCCCCC
inactive: dose: 100.0 mg/kg/injection, schedule: Q01DX009 (ip), vehicle: other 98 % of control | dose: 200.0 mg/kg/injection, schedule: Q01DX009 (ip), vehicle: other 100 % of control | dose: 400.0 mg/kg/injection, schedule: Q01DX009 (ip), vehicle: other 107 % of control

CC(=O)OCc1ccccn1
inactive: [27] 97 % of control | [23] 94 % of control | dose: 200.0 mg/kg/injection, schedule: Q01DX009 (ip), vehicle: saline 97 % of control | [25] 99 % of control | [26] 93 % of control

O=NN(CCN(N=O)c1ccccc1)c1ccccc1
inactive: [13] 97 % of control | dose: 100.0 mg/kg/injection, schedule: Q04DX003 (ip), vehicle: other 104 % of control | [14] 97 % of control | dose: 200.0 mg/kg/injection, schedule: Q04DX003 (ip), vehicle: other 101 % of control | [15] 92 % of control | dose: 400.0 mg/kg/injection, schedule: Q04DX003 (ip), vehicle: other 97 % of control

CC(CCC(=O)O)Cc1ccccc1 (centres undefined)
inactive: [19] 101 % of control | [21] 101 % of control | [27] 86 % of control

O=C(O)CCOC(C[N+](=O)[O-])C(Cl)(Cl)Cl (centres undefined)
inactive: [16] 96 % of control | [17] 97 % of control | [18] 94 % of control

c1ccc2[nH]c(N3CCOCC3)nc2c1
inactive: dose: 50.0 mg/kg/injection, schedule: Q01DX009 (ip), vehicle: saline with Tween-80 100 % of control | [1] 107 % of control | [23] 96 % of control | [6] 96 % of control | [25] 97 % of control | [26] 103 % of control

Source: PubChem BioAssay AID248 (DTP/NCI, 2004)
